Assay results from EP1173432B9, “PIPERIDINE-INDOLE COMPOUNDS HAVING 5-HT6 AFFINITY” (NPS Allelix Corp., priority 1999, dated 2000).
Where a name gives a salt, the structure may show the parent alone.

Experiments:
human 5-HT2C = target: T1, human 5-HT2C (Homo sapiens, UniProt P28335); test: Binding selectivity for 5-HT6 relative to the 5-HT2C receptor; details: selectivity 5-HT6 over 5-HT2C
T1 sequence (P28335 33-458): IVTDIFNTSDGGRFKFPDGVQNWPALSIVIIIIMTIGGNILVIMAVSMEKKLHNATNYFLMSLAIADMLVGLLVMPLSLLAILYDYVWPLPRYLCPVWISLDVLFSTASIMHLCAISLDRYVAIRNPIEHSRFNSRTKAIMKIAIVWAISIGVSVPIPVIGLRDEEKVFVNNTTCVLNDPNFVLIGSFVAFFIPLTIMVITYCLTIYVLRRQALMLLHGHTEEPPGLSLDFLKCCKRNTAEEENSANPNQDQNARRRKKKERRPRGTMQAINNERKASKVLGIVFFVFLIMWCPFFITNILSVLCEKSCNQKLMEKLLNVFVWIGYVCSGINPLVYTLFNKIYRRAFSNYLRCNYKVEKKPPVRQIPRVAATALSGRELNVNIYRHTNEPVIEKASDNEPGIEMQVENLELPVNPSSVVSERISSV

human 5-HT6 receptor = target: T2, human 5-HT6 receptor (Homo sapiens, UniProt P50406); test: Binding affinity for the 5-HT6 receptor (3H-LSD displacement, membranes of recombinant cells); details: 3H-LSD radioligand, 60 minute incubation at 37 °C
T2 construct: expressed in transfected cells; host or cells: recombinant cells
T2 sequence (P50406 whole entry): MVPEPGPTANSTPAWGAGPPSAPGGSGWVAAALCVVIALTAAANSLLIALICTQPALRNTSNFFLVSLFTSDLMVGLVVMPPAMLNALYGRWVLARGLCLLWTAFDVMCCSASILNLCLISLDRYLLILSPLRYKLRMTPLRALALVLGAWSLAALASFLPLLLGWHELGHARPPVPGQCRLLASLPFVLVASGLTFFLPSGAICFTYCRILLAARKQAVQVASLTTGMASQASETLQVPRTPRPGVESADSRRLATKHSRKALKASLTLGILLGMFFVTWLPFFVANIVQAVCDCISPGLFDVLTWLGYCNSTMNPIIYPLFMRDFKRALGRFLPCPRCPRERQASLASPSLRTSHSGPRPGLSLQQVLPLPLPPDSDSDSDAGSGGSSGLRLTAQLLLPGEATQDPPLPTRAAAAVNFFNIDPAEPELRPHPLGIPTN
Experimental: All of the compounds of the invention were evaluated using cell types receptive specifically to the 5-HT6 receptor (for cloning and characterization of the human 5-HT6 receptor see Kohen, et al. J. Neurochemistry, 66, 1996: 47-56). […] After a 60 minute incubation at 37 °C, the incubation was terminated by vacuum filtration. The filters were washed with buffer and the filters were counted for radioactivity using liquid scintillation spectrometry. The affinity of the test compound for the 5-HT6 receptor was determined by computer-assisted analysis of the data and determining the amount of the compound necessary to inhibit 50% of the binding of the radioligand to the receptor. Concentrations ranging from 10^-11 M to 10^-5 M of the test compound were evaluated.

5-HT7 receptors = 5-HT7 receptors (Homo sapiens, UniProt P34969); test: Binding selectivity for 5-HT6 relative to the 5-HT7 receptor; details: selectivity 5-HT6 over 5-HT7
Sequence of 5-HT7 receptors (P34969 whole entry): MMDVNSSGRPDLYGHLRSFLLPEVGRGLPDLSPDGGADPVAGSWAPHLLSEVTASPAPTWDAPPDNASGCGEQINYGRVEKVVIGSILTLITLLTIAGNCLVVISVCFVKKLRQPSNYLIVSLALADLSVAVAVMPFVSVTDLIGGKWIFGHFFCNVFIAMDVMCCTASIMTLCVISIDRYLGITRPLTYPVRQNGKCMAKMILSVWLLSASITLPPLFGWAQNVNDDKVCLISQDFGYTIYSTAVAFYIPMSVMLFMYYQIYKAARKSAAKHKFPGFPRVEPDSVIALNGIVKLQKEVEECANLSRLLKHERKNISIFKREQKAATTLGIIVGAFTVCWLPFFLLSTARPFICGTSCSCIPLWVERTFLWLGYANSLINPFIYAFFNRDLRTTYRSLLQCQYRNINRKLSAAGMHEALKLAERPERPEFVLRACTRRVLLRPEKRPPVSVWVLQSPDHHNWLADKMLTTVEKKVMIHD

| Structure (SMILES) | fold greater affinity for the human 5-HT6 receptor relative to the human 5-HT2C receptor (human 5-HT2C) [fold] | Ki (human 5-HT6 receptor) [nM] | fold greater affinity for the human 5-HT6 receptor relative to the human 5-HT7 receptor (5-HT7 receptors) [fold] |
| --- | --- | --- | --- |
| Cc1ccc(S(=O)(=O)n2cc(C3=CCN(C)CC3)c3cc(F)ccc32)cc1 [Example 3b, 5-Fluoro-1-(4-methylphenylsulfonyl)-3-(1-methyl-1,2,3,6-tetrahydro-4-pyridinyl)indole] | ≥ 60 | ≤ 5 | ≥ 60 |
| CN1CC=C(c2cn(S(=O)(=O)c3ccccc3)c3ccccc23)CC1 [Example 4a, 3-(1-Methyl-1,2,3,6-tetrahydro-4-pyridinyl)-1-phenylsulfonylindole] | – | ≤ 5 | – |
| CN1CC=C(c2cn(S(=O)(=O)c3cccc4ccccc34)c3c(F)cc(F)cc23)CC1 [Example 4aaa, 5,7-Difluoro-3-(1-methyl-1,2,3,6-tetrahydro-4-pyridinyl)-1-(1-naphthylsulfonyl)indole] | – | ≤ 5 | – |
| COc1ccc(S(=O)(=O)n2cc(C3=CCN(C)CC3)c3ccccc32)cc1 [Example 4b, 1-(4-Methoxyphenylsulfonyl)-3-(1-methyl-1,2,3,6-tetrahydro-4-pyridinyl)indole] | – | ≤ 50 | – |
| CN1CC=C(c2cn(S(=O)(=O)c3ccc(Cl)cc3)c3ccc(F)cc23)CC1 [Example 4bb, 1-(4-Chlorophenylsulfonyl)-5-fluoro-3-(1-methyl-1,2,3,6-tetrahydro-4-pyridinyl)indole] | ≥ 60 | ≤ 5 | ≥ 60 |
| CN1CC=C(c2cn(S(=O)(=O)c3ccc(F)cc3)c3ccccc23)CC1 [Example 4c, 1-(4-Fluorophenylsulfonyl)-3-(1-methyl-1,2,3,6-tetrahydro-4-pyridinyl)indole] | – | ≤ 5 | – |
| CN1CC=C(c2cn(S(=O)(=O)c3ccc(Br)cc3)c3ccc(F)cc23)CC1 [Example 4d, 1-(4-Bromophenylsulfonyl)-5-fluoro-3-(1-methyl-1,2,3,6-tetrahydro-4-pyridinyl)indole] | – | ≤ 50 | – |
| CN1CC=C(c2cn(S(=O)(=O)c3cc(Cl)ccc3Cl)c3ccc(F)cc23)CC1 [Example 4e, 5-Fluoro-1-(2,5-dichlorophenylsulfonyl)-3-(1-methyl-1,2,3,6-tetrahydro-4-pyridinyl)indole] | – | ≤ 50 | – |
| CN1CC=C(c2cn(S(=O)(=O)c3cccc4ccccc34)c3ccc(F)cc23)CC1 [Example 4ee, 5-Fluoro-3-(1-methyl-1,2,3,6-tetrahydro-4-pyridinyl)-1-(1-naphthylsulfonyl)indole] | – | ≤ 5 | – |
| CN1CC=C(c2cn(S(=O)(=O)c3ccc(Cl)c([N+](=O)[O-])c3)c3ccc(F)cc23)CC1 [Example 4f, 1-(4-Chloro-3-nitrophenylsulfonyl)-5-fluoro-3-(1-methyl-1,2,3,6-tetrahydro-4-pyridinyl)indole] | – | ≤ 50 | – |
| CN1CC=C(c2cn(S(=O)(=O)c3ccc4ccccc4c3)c3ccc(F)cc23)CC1 [Example 4ff, 5-Fluoro-3-(1-methyl-1,2,3,6-tetrahydro-4-pyridinyl)-1-(2-naphthylsulfonyl)indole] | ≥ 60 | – | ≥ 60 |
| Cc1cc(C)c(S(=O)(=O)n2cc(C3=CCN(C)CC3)c3cc(F)ccc32)c(C)c1 [Example 4g, 5-Fluoro-3-(1-methyl-1,2,3,6-tetrahydro-4-pyridinyl)-1-(2,4,6-trimethylphenylsulfonyl)indole] | – | ≤ 50 | – |
| CN1CC=C(c2cn(S(=O)(=O)c3ccc(F)cc3)c3ccc(Cl)cc23)CC1 [Example 4gg, 5-Chloro-1-(4-fluorophenylsulfonyl)-3-(1-methyl-1,2,3,6-tetrahydro-4-pyridinyl)indole] | – | ≤ 5 | – |
| Cc1ccc(S(=O)(=O)n2cc(C3=CCN(C)CC3)c3cc(OC4CCCCC4)ccc32)cc1 [Example 4i, 5-Cyclohexyloxy-1-(4-methylphenylsulfonyl)-3-(1-methyl-1,2,3,6-tetrahydro-4-pyridinyl)indole] | ≥ 60 | ≤ 50 | ≥ 60 |
| CN1CC=C(c2cn(S(=O)(=O)c3ccc(Cl)cc3)c3ccc(OC(F)(F)F)cc23)CC1 [Example 4jj, 1-(4-Chlorophenylsulfonyl)-3-(1-methyl-1,2,3,6-tetrahydro-4-pyridinyl)-5-trifluoromethoxyindole] | – | ≤ 5 | – |
| CN1CC=C(c2cn(S(=O)(=O)c3ccc(F)cc3)c3cc(Br)ccc23)CC1 [Example 4k, 6-Bromo-1-(4-fluorophenylsulfonyl)-3-(1-methyl-1,2,3,6-tetrahydro-4-pyridinyl)-indole] | – | ≤ 50 | – |
| Cc1ccc(S(=O)(=O)n2cc(C3=CCN(C)CC3)c3cc(OC(F)(F)F)ccc32)cc1 [Example 4kk, 1-(4-Methylphenylsulfonyl)-3-(1-methyl-1,2,3,6-tetrahydro-4-pyridinyl)-5-trifluoromethoxyindole] | – | ≤ 5 | – |
| Cc1ccc(S(=O)(=O)n2cc(C3=CCN(C)CC3)c3cc(C(F)(F)F)ccc32)cc1 [Example 4qq, 1-(4-Methylphenylsulfonyl)-3-(1-methyl-1,2,3,6-tetrahydro-4-pyridinyl)-5-trifluoromethylindole hydrochloride] | – | ≤ 50 | – |
| Cc1ccc(S(=O)(=O)n2cc(C3=CCN(C)CC3)c3cc(F)cc(F)c32)cc1 [Example 4ww, 5,7-Difluoro-3-(1-methyl-1,2,3,6-tetrahydro-4-pyridinyl)-1-(4-methylphenylsulfonyl)indole] | – | ≤ 5 | – |
| CN1CC=C(c2cn(S(=O)(=O)c3ccccc3Br)c3ccc(F)cc23)CC1 [Example 4z, 1-(2-Bromophenylsulfonyl)-5-fluoro-3-(1-methyl-1,2.3,6-tetrahydro-4-pyridinyl)indole] | ≥ 60 | ≤ 5 | ≥ 60 |
| CN1CC=C(c2cn(S(=O)(=O)c3ccc(Cl)cc3)c3c(F)cc(F)cc23)CC1 [Example 4zz, 1-(4-Chlorophenylsulfonyl)-5,7-difluoro-3-(1-methyl-1,2,3,6-tetrahydro-4-pyridinyl)indole] | – | ≤ 5 | – |
